In article PMC9295807 (2022):
Each block holds one compound with its values, some of them ahead of it.

Tests used:
Assay in all cases: in-line probing
[1] = system: 92 allB (RNA, riboswitch) GGCAGAAUAAGCUCUUGUAUAAGCUCAUUAAUCCGGUUUGAGCGUUUCGACCAGGCGACCGUAAAUUGCCCCAGGCUACAAGAGGUGCAGGAAA; conditions: 100 mM K+, 20 mM Mg2+, 100 mM Tris-HCl pH 8.3, room temperature, ~40 h
[2] = system: 92 PRT (RNA, riboswitch) GGAAUCAAACAUCUCUUGUAUAAGCUCGUUAAUUUGGAAUGAGCGUAUCUACAGGCAACCGUAAAUUGCCCCAGGCUACAAGAGGCCAGACAAG; conditions: 100 mM K+, 20 mM Mg2+
[3] = system: 94 nuc (RNA, riboswitch) GGAAAAAAAAUUAUUUUUCGUAUAUCCUUAAUGAUAUGGUUUAAGGGCAAUACAUAGAAACCACAAAUUUCUUACUGCGAAAAAUAUGCUUCUUUA; conditions: 100 mM K+, 20 mM Mg2+; 100 mM Tris-HCl pH 8.3, room temperature, ~40 h

binding ([1]; 100 µM compound): no
KD [2]: < 8.3 nM
SMILES: Nc1nc2[nH]cnc2c(=O)[nH]1

KD [3]: ~ 1.5 μM
SMILES: Nc1nc2c(ncn2[C@H]2C[C@H](O)[C@@H](CO)O2)c(=O)[nH]1

KD [1]: ~ 36.5 µM
binding ([2]; 100 mM Tris-HCl pH 8.3, room temperature, ~40 h, 100 µM compound): no
SMILES: O=c1[nH]c(=O)c2[nH]cnc2[nH]1
